Tests used:
human 5-HT2B = human 5-HT2B (Homo sapiens, UniProt P41595); test: Inositol 1-phosphate; format: cell-based
D3R [1] = biological target: T1, D3R (Homo sapiens, UniProt P35462); test: β-arrestin recruitment DiscoverX PathHunter assay, agonist mode, D3R; format: cell-based
[2] = tested on: D3R-expressing dopaminergic neurons derived from human iPSCs; test: MTT cell viability, protection from 6-OHDA-induced cell death
D2R = D2R (Homo sapiens, UniProt P14416); test: β-arrestin recruitment DiscoverX PathHunter assay, agonist mode, D2R; format: cell-based
human D2RL = human D2RL (Homo sapiens, UniProt P14416); test: [3H]-methylspiperone competition binding, D2R membranes
168 known GPCRs = details: 10 μM
D3R [3] = biological target: T1, D3R; details: 10 μM
[4] = biological target: alpha2B-adrenergic receptor (Homo sapiens, UniProt P18089); details: 10 μM
[5] = biological target: D2R (short and long isoforms) (Homo sapiens, UniProt P14416); test: DiscoverX gpcrMAX panel, agonist mode, D2R; details: 10 μM
[6] = tested on: all other receptor subtypes (D1R, D2R, D4R, D5R); format: cell-based; details: β-arrestin recruitment
pKa titration = format: physicochemical
HTR2A = HTR2A (Homo sapiens, UniProt P28223); test: DiscoverX gpcrMAX panel, antagonist mode, HTR2A; format: cell-based; details: 10 μM, percent inhibition of EC80 reference agonist
bacteria = test: Ames reverse mutation assay
ADRA2C = biological target: T2, ADRA2C (Homo sapiens, UniProt P18825); test: DiscoverX gpcrMAX panel, antagonist mode, ADRA2C; details: 10 μM, percent inhibition of EC80 reference agonist
T2 sequence (P18825 1-462): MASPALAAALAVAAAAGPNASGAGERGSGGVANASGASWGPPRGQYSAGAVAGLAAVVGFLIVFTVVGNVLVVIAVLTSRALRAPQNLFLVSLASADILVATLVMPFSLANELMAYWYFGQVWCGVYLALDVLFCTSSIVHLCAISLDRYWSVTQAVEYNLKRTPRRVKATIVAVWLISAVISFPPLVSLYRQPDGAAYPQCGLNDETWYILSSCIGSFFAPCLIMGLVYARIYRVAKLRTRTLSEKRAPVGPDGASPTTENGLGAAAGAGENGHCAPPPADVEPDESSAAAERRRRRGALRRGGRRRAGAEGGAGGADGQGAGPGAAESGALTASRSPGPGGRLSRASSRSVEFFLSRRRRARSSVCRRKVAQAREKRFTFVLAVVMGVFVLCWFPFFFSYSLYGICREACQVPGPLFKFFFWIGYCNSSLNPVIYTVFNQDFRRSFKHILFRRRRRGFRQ

D4R = biological target: T3, D4R (Homo sapiens, UniProt P21917); test: DiscoverX gpcrMAX panel, agonist mode, D4R; details: 10 μM
T3 sequence (P21917 1-419): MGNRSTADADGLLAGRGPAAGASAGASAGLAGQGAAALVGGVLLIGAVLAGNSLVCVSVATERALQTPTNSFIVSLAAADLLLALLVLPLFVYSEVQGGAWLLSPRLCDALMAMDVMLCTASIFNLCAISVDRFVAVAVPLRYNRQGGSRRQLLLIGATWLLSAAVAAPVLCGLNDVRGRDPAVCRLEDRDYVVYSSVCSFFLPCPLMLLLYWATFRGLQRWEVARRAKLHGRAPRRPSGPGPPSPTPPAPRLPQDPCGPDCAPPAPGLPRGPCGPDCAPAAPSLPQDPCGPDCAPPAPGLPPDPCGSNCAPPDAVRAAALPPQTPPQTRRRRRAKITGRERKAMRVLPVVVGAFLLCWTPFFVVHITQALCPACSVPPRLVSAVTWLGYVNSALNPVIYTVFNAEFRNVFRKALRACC

chemokine CXCR7 receptor = chemokine CXCR7 receptor (Homo sapiens, UniProt P25106); test: DiscoverX gpcrMAX panel, agonist mode, CXCR7; details: 10 μM
chemokine CXCR7 receptor, sequence (P25106 whole entry): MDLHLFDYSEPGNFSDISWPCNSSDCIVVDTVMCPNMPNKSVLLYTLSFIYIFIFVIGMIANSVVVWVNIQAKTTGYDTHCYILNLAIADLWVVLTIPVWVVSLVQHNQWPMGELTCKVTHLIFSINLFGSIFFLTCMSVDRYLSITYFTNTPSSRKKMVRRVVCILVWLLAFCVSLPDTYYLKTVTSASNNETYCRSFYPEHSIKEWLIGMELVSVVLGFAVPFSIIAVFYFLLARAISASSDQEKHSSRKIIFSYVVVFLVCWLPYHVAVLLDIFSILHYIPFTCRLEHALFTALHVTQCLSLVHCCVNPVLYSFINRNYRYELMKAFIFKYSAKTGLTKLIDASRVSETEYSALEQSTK

T1 sequence (P35462 whole entry): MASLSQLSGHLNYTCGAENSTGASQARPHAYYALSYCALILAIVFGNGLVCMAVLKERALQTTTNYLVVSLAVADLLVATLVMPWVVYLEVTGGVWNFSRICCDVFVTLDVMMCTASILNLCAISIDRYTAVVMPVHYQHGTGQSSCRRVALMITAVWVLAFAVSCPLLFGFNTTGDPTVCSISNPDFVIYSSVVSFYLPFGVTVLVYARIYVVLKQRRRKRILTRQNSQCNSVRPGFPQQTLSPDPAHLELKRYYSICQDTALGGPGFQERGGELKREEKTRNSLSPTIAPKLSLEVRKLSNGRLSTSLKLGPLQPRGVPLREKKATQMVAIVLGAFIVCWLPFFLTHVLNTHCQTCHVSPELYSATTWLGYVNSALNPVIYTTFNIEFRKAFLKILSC
D2R, sequence (P14416 whole entry): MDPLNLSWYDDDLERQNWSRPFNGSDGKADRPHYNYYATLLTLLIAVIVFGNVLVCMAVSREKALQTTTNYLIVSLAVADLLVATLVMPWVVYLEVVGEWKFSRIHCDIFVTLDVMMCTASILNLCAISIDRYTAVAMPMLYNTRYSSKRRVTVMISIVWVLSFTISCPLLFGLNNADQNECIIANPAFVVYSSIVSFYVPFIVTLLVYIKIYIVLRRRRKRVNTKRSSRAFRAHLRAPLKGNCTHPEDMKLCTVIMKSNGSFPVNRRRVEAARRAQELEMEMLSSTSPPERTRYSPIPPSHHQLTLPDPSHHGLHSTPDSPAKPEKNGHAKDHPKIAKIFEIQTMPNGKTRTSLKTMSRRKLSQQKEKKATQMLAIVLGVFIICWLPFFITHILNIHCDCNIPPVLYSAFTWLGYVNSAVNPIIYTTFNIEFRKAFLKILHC
D2R (short and long isoforms), sequence (P14416 1-414 isoform P14416-2): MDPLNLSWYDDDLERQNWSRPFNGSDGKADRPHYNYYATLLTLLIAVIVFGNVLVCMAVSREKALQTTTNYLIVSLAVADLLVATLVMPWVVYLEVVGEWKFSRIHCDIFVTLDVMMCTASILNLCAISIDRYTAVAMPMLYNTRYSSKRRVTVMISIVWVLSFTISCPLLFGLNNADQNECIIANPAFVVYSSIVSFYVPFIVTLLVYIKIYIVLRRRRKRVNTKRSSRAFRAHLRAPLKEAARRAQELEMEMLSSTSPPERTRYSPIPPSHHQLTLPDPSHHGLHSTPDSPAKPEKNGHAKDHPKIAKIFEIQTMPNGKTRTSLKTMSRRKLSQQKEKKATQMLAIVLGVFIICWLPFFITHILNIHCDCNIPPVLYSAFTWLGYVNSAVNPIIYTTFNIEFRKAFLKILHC
human 5-HT2B, sequence (P41595 whole entry): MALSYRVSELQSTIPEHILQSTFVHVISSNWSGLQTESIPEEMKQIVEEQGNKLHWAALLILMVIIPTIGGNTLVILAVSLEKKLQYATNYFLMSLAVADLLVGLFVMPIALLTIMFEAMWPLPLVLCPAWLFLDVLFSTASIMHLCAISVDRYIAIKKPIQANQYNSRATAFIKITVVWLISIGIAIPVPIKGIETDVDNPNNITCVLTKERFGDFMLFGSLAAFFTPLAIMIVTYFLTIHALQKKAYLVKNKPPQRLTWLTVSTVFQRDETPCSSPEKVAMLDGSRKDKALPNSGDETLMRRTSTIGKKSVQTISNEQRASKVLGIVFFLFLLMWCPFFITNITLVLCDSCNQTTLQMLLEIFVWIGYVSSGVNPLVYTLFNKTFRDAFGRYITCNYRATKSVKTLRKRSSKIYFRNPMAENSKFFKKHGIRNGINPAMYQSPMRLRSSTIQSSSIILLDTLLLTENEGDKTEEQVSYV
alpha2B-adrenergic receptor, sequence (P18089 whole entry, canonical isoform): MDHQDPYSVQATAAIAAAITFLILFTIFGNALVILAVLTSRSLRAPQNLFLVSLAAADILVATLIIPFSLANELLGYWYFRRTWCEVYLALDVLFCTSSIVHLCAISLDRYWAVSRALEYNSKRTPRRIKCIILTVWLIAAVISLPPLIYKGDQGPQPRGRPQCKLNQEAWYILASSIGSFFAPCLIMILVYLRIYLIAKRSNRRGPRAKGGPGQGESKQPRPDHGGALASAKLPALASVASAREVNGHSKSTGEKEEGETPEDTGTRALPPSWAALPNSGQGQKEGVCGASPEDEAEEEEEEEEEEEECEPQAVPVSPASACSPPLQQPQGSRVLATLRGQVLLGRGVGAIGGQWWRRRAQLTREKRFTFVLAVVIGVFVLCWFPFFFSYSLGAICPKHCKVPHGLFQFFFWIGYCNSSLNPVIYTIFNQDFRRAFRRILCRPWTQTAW
human D2RL, sequence (P14416 whole entry): as the sequence (P14416 whole entry) above
HTR2A, sequence (P28223 whole entry): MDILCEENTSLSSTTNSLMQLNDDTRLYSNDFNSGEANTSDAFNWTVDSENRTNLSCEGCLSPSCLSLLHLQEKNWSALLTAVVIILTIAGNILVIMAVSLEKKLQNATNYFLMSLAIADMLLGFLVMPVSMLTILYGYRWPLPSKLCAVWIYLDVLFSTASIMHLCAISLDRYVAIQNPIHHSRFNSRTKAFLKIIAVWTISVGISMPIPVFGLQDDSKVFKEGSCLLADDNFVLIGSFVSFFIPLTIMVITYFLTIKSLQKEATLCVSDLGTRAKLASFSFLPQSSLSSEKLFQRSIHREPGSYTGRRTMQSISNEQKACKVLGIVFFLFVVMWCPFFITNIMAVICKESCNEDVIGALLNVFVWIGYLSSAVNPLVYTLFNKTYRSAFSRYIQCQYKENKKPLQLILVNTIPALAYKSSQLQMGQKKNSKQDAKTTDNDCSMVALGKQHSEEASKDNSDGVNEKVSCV

Cn1ccc2cc3c(cc21)CCN3C(=O)Nc1cccnc1 [SB206553, reference compound]
IC50 (human 5-HT2B): 13 nM

COc1ccc2cc(C(=O)N3CCN(CCOc4cccnc4)CC3)[nH]c2c1 [Compound 58, (6-Methoxy-1H-indol-2-yl)(4-(2-(pyridin-3-yloxy)ethyl)piperazin-1-yl)methanone]
D3R agonist activity EC50 (D3R [1]): single-digit nanomolar range

NCCc1cc(O)c(O)cc1O [Compound 6-OHDA, 6-hydroxydopamine]
reduction of cell viability ([2]; 30 μM, 24 hr, no drug (vehicle)): 62 ± 8%

COc1ccc(OCCN2CCN(C(=O)c3ccc(OC)cc3)CC2)cc1 [Compound 1, (4-(2-(4-Methoxyphenoxy)ethyl)piperazin-1-yl)(4-methoxyphenyl)methanone]
D2R agonist activity EC50 (D2R; β-arrestin recruitment (DiscoverX), agonist mode): No measurable agonist activity
IC50 for inhibiting [3H]-methylspiperone binding to the D2R (human D2RL): no measurable ability to displace binding

CCCN[C@H]1CCc2nc(N)sc2C1 [Pramipexole, pramipexole]
antagonist activity at any of the GPCRs tested (168 known GPCRs): did not exhibit antagonist activity
agonist activity, D3R (gpcrMAX) (D3R [3]): full agonist activity
agonist activity, alpha2B-adrenergic receptor (gpcrMAX) [4]: partial agonist activity
agonist activity, D2R (gpcrMAX) [5]: full agonist activity
concentration giving significant reduction in 6-OHDA-induced cell death ([2]; 24 h pretreatment, 30 μM 6-OHDA 24 h, MTT): 500 nM

COc1ccc(OCCN2CCN(C(=O)c3cc4ccccc4[nH]3)CC2)cc1 [Compound 20, (1H-Indol-2-yl)(4-(2-(4-methoxyphenoxy)ethyl)piperazin-1-yl)methanone]
agonist efficacy at other dopamine receptor subtypes [6]: minimal agonist efficacy
5-HT2B agonist activity (IP1 accumulation) (human 5-HT2B; 10 μM): no agonist activity
pKa (pKa titration): 8.62
partial antagonist activity, HTR2A (HTR2A): 37%
AMES reverse mutation assay (bacteria): no toxicity was observed
agonist activity, D2R (gpcrMAX) [5]: small, but measurable agonist responses
partial antagonist activity, ADRA2C (ADRA2C): 36%

COc1ccc2[nH]c(C(=O)N3CCN(CCOc4cccnc4)CC3)cc2c1 [Compound 59, (5-Methoxy-1H-indol-2-yl)(4-(2-(pyridin-3-yloxy)ethyl)piperazin-1-yl)methanone]
D2R agonist activity Emax (D2R; percentage of the maximum dopamine response): 97 ± 2.8 % control

CCCN(CC[C@]1(O)C[C@H](NC(=O)c2ccc3ccccc3c2)C1)[C@H]1CCc2nc(N)sc2C1 [CJ-1639]
agonist activity, D3R (gpcrMAX) (D3R [3]): full agonist
agonist activity, D4R (gpcrMAX) (D4R): partial agonist activities
agonist activity, CXCR7 (gpcrMAX) (chemokine CXCR7 receptor): partial agonist activities
